The values that follow are results of earlier work, collected in patent US20250032643A1, “SYNTHETIC RECEPTORS” (UCL BUSINESS LTD, priority 2021, published 2025).

The target of this series is T1, α1B (Homo sapiens, UniProt P35368).
T1 sequence (P35368 1-520): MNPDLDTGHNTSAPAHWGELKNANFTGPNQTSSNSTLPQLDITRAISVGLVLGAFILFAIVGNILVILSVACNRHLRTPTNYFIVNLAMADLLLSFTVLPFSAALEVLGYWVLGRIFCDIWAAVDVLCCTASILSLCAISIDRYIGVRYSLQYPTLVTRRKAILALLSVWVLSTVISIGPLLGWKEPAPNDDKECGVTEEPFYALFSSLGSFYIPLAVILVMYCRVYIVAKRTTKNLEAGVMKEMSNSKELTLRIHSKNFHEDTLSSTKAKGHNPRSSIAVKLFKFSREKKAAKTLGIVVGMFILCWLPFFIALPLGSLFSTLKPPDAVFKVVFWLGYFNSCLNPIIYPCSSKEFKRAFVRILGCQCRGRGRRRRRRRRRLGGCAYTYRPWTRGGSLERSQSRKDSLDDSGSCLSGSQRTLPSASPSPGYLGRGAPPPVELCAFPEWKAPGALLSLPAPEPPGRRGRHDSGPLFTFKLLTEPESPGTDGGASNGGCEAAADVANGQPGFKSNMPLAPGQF
The conditions noted are these: read-out: binding affinity; native α1B receptor.

With `CN(C)CCOC(c1ccccc1)c1ccccc1` [DPH, diphenhydramine], the Ki is more than 1000 nM.
